Source: ChEMBL document CHEMBL4229455, “Synthesis and anticancer activity of novel bisindolylhydroxymaleimide derivatives with potent GSK-3 kinase inhibition” (Bioorg Med Chem, 2018)

What was measured:
SF-539 [1] = experiment: Cytotoxicity against human SF539 cells after 48 hrs by SRB assay; type: functional; details: SF-539, 48 h
[2] = molecular target: Cyclin-dependent kinase 5/CDK5 activator 1 (Homo sapiens) (UniProt Q00535+Q15078); experiment: Inhibition of recombinant full length human CDK5/p25 expressed in bacteria assessed as residual activity at 10 uM using histone H1 as substrate in presence of [gamma-33P]ATP
UACC-62 = experiment: Cytotoxicity against human UACC62 cells after 48 hrs by SRB assay; type: functional; details: UACC-62, 48 h
786-0 = experiment: Cytotoxicity against human 786-O cells assessed as cell growth at 10 uM after 48 hrs by SRB assay relative to control; type: functional; details: 786-0, 48 h, read-out: Activity
CDK2/Cyclin A2 = CDK2/Cyclin A2 (Homo sapiens, UniProt P24941); experiment: Inhibition of full length human CDK2/cyclin A using histone H1 as substrate in presence of [gamma-33P]ATP; type: protein-complex assay
NCI-H23 = experiment: Cytotoxicity against human NCI-H23 cells after 48 hrs by SRB assay; type: functional; details: NCI-H23, 48 h
MDA-MB-231 [3] = experiment: Cytotoxicity against human MDA-MB-231 cells assessed as cell growth at 10 uM after 48 hrs by SRB assay relative to control; type: functional; details: MDA-MB-231, 48 h, read-out: Activity
Sus scrofa domesticus = species: Sus scrofa domesticus; experiment: Inhibition of domestic porcine brain full length […] assessed as residual activity at 10 uM using RRKHAAIGSpAYSITA as substrate in presence of [gamma-33P]ATP
[4] = molecular target: Serine/threonine-protein kinase pim-1 (Homo sapiens, UniProt P11309); experiment: Inhibition of recombinant full length human PIM1 expressed in bacteria using histone H1 as substrate in presence of [gamma-33P]ATP
IGROV-1 = experiment: Cytotoxicity against human IGROV1 cells assessed as cell growth at 10 uM after 48 hrs by SRB assay relative to control; type: functional; details: IGROV-1, 48 h, read-out: Activity
SK-OV-3 = experiment: Cytotoxicity against human SKOV3 cells assessed as cell growth at 10 uM after 48 hrs by SRB assay relative to control; type: functional; details: SK-OV-3, 48 h, read-out: Activity
OVCAR-5 = experiment: Cytotoxicity against human OVCAR5 cells after 48 hrs by SRB assay; type: functional; details: OVCAR-5, 48 h
MDA-MB-468 = experiment: Cytotoxicity against human MDA-MB-468 cells assessed as cell growth at 10 uM after 48 hrs by SRB assay relative to control; type: functional; details: MDA-MB-468, 48 h, read-out: Activity
LOX IMVI = experiment: Cytotoxicity against human LOXIMVI cells assessed as cell growth at 0.01 uM after 48 hrs by SRB assay relative to control; type: functional; details: read-out: Activity
HT-29 = experiment: Cytotoxicity against human HT-29 cells assessed as cell growth at 10 uM after 48 hrs by SRB assay relative to control; type: functional; details: HT-29, 48 h, read-out: Activity
Aurora kinase B = Aurora kinase B (Homo sapiens, UniProt Q96GD4); experiment: Inhibition of recombinant full length human aurora B expressed in baculovirus infected Sf9 insect cells assessed as residual activity at 10 uM using MBP as substrate in presence of [gamma-33P]ATP
RXF 393 = experiment: Cytotoxicity against human RXF393 cells assessed as cell growth at 0.1 uM after 48 hrs by SRB assay relative to control; type: functional; details: RXF 393, 48 h, read-out: Activity
MDA-MB-231 [5] = experiment: Cytotoxicity against human MDA-MB-231 cells assessed as cell growth at 1 uM after 48 hrs by SRB assay relative to control; type: functional; details: MDA-MB-231, 48 h, read-out: Activity
SK-MEL-28 = experiment: Cytotoxicity against human SK-MEL-28 cells assessed as cell growth at 10 uM after 48 hrs by SRB assay relative to control; type: functional; details: SK-MEL-28, 48 h, read-out: Activity
SF-295 = experiment: Cytotoxicity against human SF295 cells assessed as cell growth at 10 uM after 48 hrs by SRB assay relative to control; type: functional; details: SF-295, 48 h, read-out: Activity
CCRF-CEM = experiment: Cytotoxicity against human CCRF-CEM cells after 48 hrs by SRB assay; type: functional
T47D [6] = experiment: Cytotoxicity against human T47D cells assessed as cell growth at 10 uM after 48 hrs by SRB assay relative to control; type: functional; details: read-out: Activity
HCC 2998 = experiment: Cytotoxicity against human HCC2998 cells assessed as cell growth at 10 uM after 48 hrs by SRB assay relative to control; type: functional; details: HCC 2998, 48 h, read-out: Activity
[7] = molecular target: Glycogen synthase kinase-3 (Sus scrofa) (UniProt B2LUN4+I6LNT8); experiment: Inhibition of domestic porcine brain full length GSK-3alpha/beta assessed as residual activity at 10 uM using GS-1 as substrate in presence of [gamma-33P]ATP; details: Sus scrofa domesticus
SNB-19 = experiment: Cytotoxicity against human SNB19 cells assessed as cell growth at 10 uM after 48 hrs by SRB assay relative to control; type: functional; details: SNB-19, 48 h, read-out: Activity
KM12 = experiment: Cytotoxicity against human KM12 cells assessed as cell growth at 0.1 uM after 48 hrs by SRB assay relative to control; type: functional; details: KM12, 48 h, read-out: Activity
MOLT-4 = experiment: Cytotoxicity against human MOLT4 cells assessed as cell growth at 10 uM after 48 hrs by SRB assay relative to control; type: functional; details: MOLT-4, 48 h, read-out: Activity
[8] = molecular target: Receptor-interacting serine/threonine-protein kinase 3 (Homo sapiens, UniProt Q9Y572); experiment: Inhibition of recombinant full length human RIPK3 expressed in baculovirus infected Sf9 insect cells using MBP as substrate in presence of [gamma-33P]ATP
NCI-H460 = experiment: Cytotoxicity against human NCI-H460 cells assessed as cell growth at 10 uM after 48 hrs by SRB assay relative to control; type: functional; details: NCI-H460, 48 h, read-out: Activity
T47D [9] = experiment: Cytotoxicity against human T47D cells assessed as cell growth at 100 uM after 48 hrs by SRB assay relative to control; type: functional; details: read-out: Activity
Malme-3M = experiment: Cytotoxicity against human MALME-3M cells assessed as cell growth at 100 uM after 48 hrs by SRB assay relative to control; type: functional; details: read-out: Activity
SW-620 = experiment: Cytotoxicity against human SW620 cells assessed as cell growth at 10 uM after 48 hrs by SRB assay relative to control; type: functional; details: SW-620, 48 h, read-out: Activity
EKVX = experiment: Cytotoxicity against human EKVX cells assessed as cell growth at 10 uM after 48 hrs by SRB assay relative to control; type: functional; details: read-out: Activity
SF-539 [10] = experiment: Cytotoxicity against human SF539 cells assessed as cell growth at 10 uM after 48 hrs by SRB assay relative to control; type: functional; details: SF-539, 48 h, read-out: Activity

Chain of Receptor-interacting serine/threonine-protein kinase 3 (Q9Y572 whole entry): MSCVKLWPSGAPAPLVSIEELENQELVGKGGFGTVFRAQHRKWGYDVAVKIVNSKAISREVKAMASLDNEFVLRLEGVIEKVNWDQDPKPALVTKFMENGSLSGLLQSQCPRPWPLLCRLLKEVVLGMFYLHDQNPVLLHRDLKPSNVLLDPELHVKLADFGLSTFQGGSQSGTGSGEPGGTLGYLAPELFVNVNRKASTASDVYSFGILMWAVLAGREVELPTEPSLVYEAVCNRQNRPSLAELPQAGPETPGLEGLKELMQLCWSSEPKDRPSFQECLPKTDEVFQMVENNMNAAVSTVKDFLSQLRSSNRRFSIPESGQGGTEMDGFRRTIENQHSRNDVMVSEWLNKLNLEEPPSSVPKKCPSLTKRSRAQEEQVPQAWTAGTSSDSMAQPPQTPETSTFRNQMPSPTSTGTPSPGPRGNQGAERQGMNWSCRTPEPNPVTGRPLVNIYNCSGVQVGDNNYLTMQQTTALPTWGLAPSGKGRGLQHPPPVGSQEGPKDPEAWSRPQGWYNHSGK
Chain of Aurora kinase B (Q96GD4 whole entry): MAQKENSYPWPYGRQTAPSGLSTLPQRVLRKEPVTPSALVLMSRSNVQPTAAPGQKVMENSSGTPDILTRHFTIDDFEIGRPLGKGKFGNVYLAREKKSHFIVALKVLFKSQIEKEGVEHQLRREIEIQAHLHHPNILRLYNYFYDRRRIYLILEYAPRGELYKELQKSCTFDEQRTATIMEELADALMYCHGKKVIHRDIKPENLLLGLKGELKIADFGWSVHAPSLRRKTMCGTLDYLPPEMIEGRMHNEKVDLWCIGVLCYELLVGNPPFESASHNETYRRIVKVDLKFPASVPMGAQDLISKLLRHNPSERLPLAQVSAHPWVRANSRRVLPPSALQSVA
Chain of Cyclin-dependent kinase 5/CDK5 activator 1 (Homo sapiens) (Q00535 whole entry): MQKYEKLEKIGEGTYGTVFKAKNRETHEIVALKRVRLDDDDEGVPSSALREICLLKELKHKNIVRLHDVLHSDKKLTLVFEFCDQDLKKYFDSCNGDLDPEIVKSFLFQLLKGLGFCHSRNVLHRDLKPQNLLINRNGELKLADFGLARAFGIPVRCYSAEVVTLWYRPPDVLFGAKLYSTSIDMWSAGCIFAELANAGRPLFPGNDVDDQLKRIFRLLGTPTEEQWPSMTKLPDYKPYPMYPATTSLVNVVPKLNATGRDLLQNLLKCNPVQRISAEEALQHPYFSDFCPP
Chain of Cyclin-dependent kinase 5/CDK5 activator 1 (Homo sapiens) (Q15078 99-307 partner limits assumed): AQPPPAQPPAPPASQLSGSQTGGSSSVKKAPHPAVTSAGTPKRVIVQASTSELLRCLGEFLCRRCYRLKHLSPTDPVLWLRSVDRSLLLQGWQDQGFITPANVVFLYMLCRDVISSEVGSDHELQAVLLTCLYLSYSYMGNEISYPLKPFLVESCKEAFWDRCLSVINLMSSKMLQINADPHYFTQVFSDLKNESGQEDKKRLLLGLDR
Chain of Serine/threonine-protein kinase pim-1 (P11309 whole entry): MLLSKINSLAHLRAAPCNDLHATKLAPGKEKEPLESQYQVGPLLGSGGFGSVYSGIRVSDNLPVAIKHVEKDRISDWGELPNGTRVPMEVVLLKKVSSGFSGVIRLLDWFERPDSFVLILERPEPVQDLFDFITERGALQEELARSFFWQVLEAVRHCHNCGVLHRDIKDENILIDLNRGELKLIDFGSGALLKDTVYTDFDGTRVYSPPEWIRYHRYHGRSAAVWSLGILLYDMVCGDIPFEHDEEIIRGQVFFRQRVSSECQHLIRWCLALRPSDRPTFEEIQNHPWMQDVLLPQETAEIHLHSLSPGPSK

N#CCCCCCn1cc(C2=C(c3cn(CCCCCC#N)c4ccccc34)C(=O)N(O)C2=O)c2ccccc21
GI50 (SF-539 [1]): 2.82 µM
LC50 (SF-539 [1]): > 100 µM
TGI (SF-539 [1]): 9.42 µM
Activity [2]: 75%
GI50 (UACC-62): 3.23 µM
LC50 (UACC-62): 84.4 µM
TGI (UACC-62): 16 µM
growth at 10 µM (786-0): 51 to 78.7%
IC50 (CDK2/Cyclin A2): > 10 µM
GI50 (NCI-H23): 6.09 µM
LC50 (concentration killing 50% of cells) (NCI-H23): > 100 µM
TGI (NCI-H23): > 100 µM
growth at 10 µM (MDA-MB-231 [3]): 31 to 40.3%
Activity (Sus scrofa domesticus): 67%
IC50 [4]: > 10 µM
growth at 10 µM (IGROV-1): 28 to 66.8%
growth at 10 µM (SK-OV-3): 45 to 78.5%
GI50 (OVCAR-5): 38.4 µM
LC50 (OVCAR-5): > 100 µM
TGI (OVCAR-5): > 100 µM
growth at 10 µM (MDA-MB-468): 3 to 58%
growth at 0.01 µM (LOX IMVI): 94%
growth at 10 µM (HT-29): 51 to 92.4%
Activity (Aurora kinase B): 75%
growth at 0.1 µM (RXF 393): 102%
growth at 1 µM (MDA-MB-231 [5]): 82%
growth at 10 µM (SK-MEL-28): 35 to 83.3%
growth at 10 µM (SF-295): 35 to 85%
GI50 (CCRF-CEM): 2.73 µM
LC50 (CCRF-CEM): > 100 µM
TGI (CCRF-CEM): > 100 µM
growth at 10 µM (T47D [6]): 26 to 65.5%
growth at 10 µM (HCC 2998): 59 to 99.6%
Activity [7]: 5%
growth at 10 µM (SNB-19): 27 to 79.5%
growth at 0.1 µM (KM12): 97%
growth at 10 µM (MOLT-4): 10 to 49.4%
IC50 [8]: > 10 µM
growth at 10 µM (NCI-H460): 28 to 72.7%
growth at 100 µM (T47D [9]): -7%
growth at 100 µM (Malme-3M): -14%
growth at 10 µM (SW-620): 31 to 62.5%

N#CCCCCCn1cc(C2=C(c3cn(CCCCCC#N)c4ccccc34)C(=O)NC2=O)c2ccccc21
Activity [2]: 46%
IC50 (CDK2/Cyclin A2): 2.5 µM
growth at 10 µM (MDA-MB-231 [3]): 81.4%
Activity (Sus scrofa domesticus): 108%
IC50 [4]: > 10 µM
growth at 10 µM (IGROV-1): 124%
growth at 10 µM (SK-OV-3): 57%
growth at 10 µM (MDA-MB-468): 63.3%
growth at 10 µM (HT-29): 84.4%
Activity (Aurora kinase B): 83%
growth at 10 µM (SK-MEL-28): 133%
growth at 10 µM (SF-295): 66.2%
growth at 10 µM (EKVX): 86.5%
growth at 10 µM (T47D [6]): 67.6%
growth at 10 µM (HCC 2998): 107%
Activity [7]: 11%
IC50 [8]: > 10 µM
growth at 10 µM (NCI-H460): 86.8%
growth at 10 µM (SF-539 [10]): 53.7%
growth at 10 µM (SW-620): 108%

Cn1cc(C2=C(c3cn(C)c4ncccc34)C(=O)NC2=O)c2ccccc21
GI50 (SF-539 [1]): 2.09 µM
TGI (SF-539 [1]): 5.85 µM
Activity [2]: -1%
GI50 (UACC-62): 4.22 µM
TGI (UACC-62): 22 µM
growth at 10 µM (786-0): 12%
IC50 (CDK2/Cyclin A2): 0.1 µM
GI50 (NCI-H23): 4.18 µM
TGI (NCI-H23): 26.7 µM
growth at 10 µM (MDA-MB-231 [3]): 35 to 56.3%
Activity (Sus scrofa domesticus): 76%
IC50 [4]: 2 µM
growth at 10 µM (IGROV-1): 8 to 70.8%
GI50 (OVCAR-5): 3.88 µM
TGI (OVCAR-5): 29.1 µM
growth at 0.01 µM (LOX IMVI): 101%
growth at 10 µM (HT-29): 2.28 to 5%
Activity (Aurora kinase B): 84%
growth at 0.1 µM (RXF 393): 98%
growth at 1 µM (MDA-MB-231 [5]): 79%
growth at 10 µM (SK-MEL-28): 8 to 51.3%
growth at 10 µM (SF-295): 9.52%
growth at 10 µM (EKVX): 9 to 62.7%
GI50 (CCRF-CEM): 2.86 µM
TGI (CCRF-CEM): > 100 µM
growth at 10 µM (T47D [6]): 10 to 24.2%
growth at 10 µM (HCC 2998): 30 to 58.9%
Activity [7]: -21%
growth at 10 µM (SNB-19): 40 to 65%
growth at 0.1 µM (KM12): 102%
growth at 10 µM (MOLT-4): 8 to 12.6%
IC50 [8]: > 10 µM
growth at 10 µM (NCI-H460): 19 to 19.5%
growth at 100 µM (T47D [9]): -11%
growth at 100 µM (Malme-3M): -11%
growth at 10 µM (SW-620): 12.9 to 20%

O=C1C2=C(C(=O)N1O)c1cn(c3ccccc13)CCCCCCn1cc2c2ccccc21
Activity [2]: 91%
IC50 (CDK2/Cyclin A2): > 10 µM
growth at 10 µM (MDA-MB-231 [3]): 104%
Activity (Sus scrofa domesticus): 103%
IC50 [4]: > 10 µM
growth at 10 µM (IGROV-1): 113%
growth at 10 µM (SK-OV-3): 106%
growth at 10 µM (MDA-MB-468): 97.5%
growth at 10 µM (HT-29): 121%
Activity (Aurora kinase B): 97%
growth at 10 µM (SK-MEL-28): 108%
growth at 10 µM (SF-295): 107%
growth at 10 µM (EKVX): 103%
growth at 10 µM (T47D [6]): 104%
growth at 10 µM (HCC 2998): 110%
Activity [7]: 48%
growth at 10 µM (MOLT-4): 110%
IC50 [8]: > 10 µM
growth at 10 µM (NCI-H460): 100%
growth at 10 µM (SF-539 [10]): 95.7%
growth at 10 µM (SW-620): 98.6%
